From ChEMBL document CHEMBL4418482, “2-hydroxyarylamide derivative or pharmaceutically acceptable salt thereof, preparation method thereof, and pharmaceutical composition for preventing or treating cancer containing same as active ingredient” (2014) come the findings set out here.

Experiment [1] addresses Transmembrane protease serine 4 (Homo sapiens) (UniProt Q9NRS4). Kind of experiment: Inhibition of TMPRSS4 serine protease domain (Val205 to Leu437 residues) (unknown origin) expressed in Escherichia coli BL21 (DE3) at 30 uM using Z-Phe-Arg7-amido-4-methylcoumarin hydrochloride substrate measured at 5 mins interval for 150 mins by fluorescence based assay relative to control.

Experiment [2] has the same target. Kind of experiment: Inhibition of TMPRSS4 serine protease domain (Val205 to Leu437 residues) (unknown origin) expressed in Escherichia coli BL21 (DE3) at 10 uM using Z-Phe-Arg7-amido-4-methylcoumarin hydrochloride substrate measured at 5 mins interval for 150 mins by fluorescence based assay relative to control.
Experiment [3] shares this target. The experiment can be described thus: Inhibition of TMPRSS4 serine protease domain (Val205 to Leu437 residues) (unknown origin) expressed in Escherichia coli BL21 (DE3) at 100 uM using Z-Phe-Arg7-amido-4-methylcoumarin hydrochloride substrate measured at 5 mins interval for 150 mins by fluorescence based assay relative to control.
Experiment [4] shares this target. Kind of experiment: Inhibition of TMPRSS4 serine protease domain (Val205 to Leu437 residues) (unknown origin) expressed in Escherichia coli BL21 (DE3) at 1 mM using Boc-Gln-Ala-Arg-7-amido-4-methylcoumarin hydrochloride substrate measured at 5 mins intervals.

The source made the active and inactive calls. The calls are words filed in the database; no cut-off is given here.

Transmembrane protease serine 4 (Homo sapiens), sequence (Q9NRS4 whole entry, the tested form may be a part): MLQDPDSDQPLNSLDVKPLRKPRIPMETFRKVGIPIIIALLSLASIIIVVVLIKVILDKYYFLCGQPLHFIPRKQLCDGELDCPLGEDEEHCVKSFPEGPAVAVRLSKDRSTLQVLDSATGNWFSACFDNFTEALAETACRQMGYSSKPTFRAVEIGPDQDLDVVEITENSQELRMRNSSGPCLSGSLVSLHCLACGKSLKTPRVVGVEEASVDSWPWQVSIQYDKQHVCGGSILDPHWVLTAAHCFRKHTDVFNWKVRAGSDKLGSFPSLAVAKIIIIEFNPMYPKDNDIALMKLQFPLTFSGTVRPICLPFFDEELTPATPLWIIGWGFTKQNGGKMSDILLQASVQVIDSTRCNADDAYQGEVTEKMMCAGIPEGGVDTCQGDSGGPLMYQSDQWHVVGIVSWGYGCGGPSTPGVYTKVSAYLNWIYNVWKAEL

Turning to `Cc1c(NC(=O)c2cc(Cl)ccc2O)cccc1C(F)(F)F`, the inhibition (usually the relative decrease from the control value, in per cent) in experiment [1] amounted to 77%. Take `O=C(Nc1cc(C(F)(F)F)cc(C(F)(F)F)c1Cl)c1cc(-c2ccc(F)cc2F)ccc1O`: the inhibition was determined as 5% in experiment [2] and 31% in experiment [1]. With `O=C(Nc1ccc(C(F)(F)F)c(Br)c1)c1cc(Cl)ccc1O`, the inhibition in experiment [2] turned out to be 30%; in experiment [3] it was 98%; in experiment [1] it was 46%. Take `NCCc1ccc(S(=O)(=O)F)cc1`: in experiment [4], the inhibition entry is “Active”.
